From patent publication US20250090498A1, “TREATMENT OF PRIMARY CTLA-4 CHECKPOINT RELATED IMMUNODEFICIENCIES” (ADIENNE PHARMA & BIOTECH SA, priority 2023, published 2025)
Entries after “also recorded” stand apart in the source; their conditions may differ.

Columns and labels:
[1] = system: pathology after chronic treatment with anti-CTLA-4 monoclonal antibody; test: chronic anti-CTLA-4 treatment in 16 wk-old Il10−/− mice, without DSS; type: in vivo
Description: Animals were monitored daily for body weight, disease activity index, clinical inspection, inflammatory pathology in the ileum and colon, epithelial barrier function and immunological parameters of inflammation. […] Consistent with the extensive T cells infiltration in different organs observed in CTLA-4 haploinsufficiency (Kuehn et al, 2014; Schubert et al, 2014; […] No lymphocytic infiltration or immunopathology were detected in organs, such as the spleens and kidneys (data not shown).

B16 tumor cells = test: anti-CTLA-4-responsive B16 melanoma model; type: in vivo, C57BL/6 mice
Description: For FIGS. 12A-12E, C57BL/6 mice were subcutaneously injected with B16 tumor cells and administered 100 μg anti-CTLA-4 mAb or isotype control intraperitoneally four times at 3-day intervals up to 16 days. 3-IAld was administered intragastrically every other day. Mice were evaluated for (FIG. 12A) tumor growth, (FIG. 12B) histology (periodic acid-Schiff staining), (FIG. 12C) immunohistochemistry for CD8+ and CD4+ tumor-infiltrating lymphocytes (TIL), (FIG. 12D) number of positive TIL per high-power field, HPF and (FIG. 12E) Cxcl9 and Perforin expression. (FIGS. 12F-12J) C57BL/6 mice were orthotopically injected with LLC cells and administered 200 μg anti-PD-1 mAb or isotype control intraperitoneally five times at 3-day intervals up to 18 days. 3-IAld was administered intragastrically every other day. Mice were evaluated for (FIG. 12F) % survival, (FIG. 12G) lung weight, (FIG. 12H) lung gross pathology, (FIGS. 12I, 12J) CD4+CD25+Foxp3+ cells. Photographs were taken with a high-resolution microscope, ×40 magnification (scale bars, 100 μm). Each in vivo experiment includes three mice per group (nine mice in each experiment). […]
The potential application of 3-IAld requires that its immunoregulatory activity would not impinge the tumor immunosurveillance. To this purpose, the effect of 3-IAld was assessed in the anti-CTLA-4-responsive B16 melanoma model (Renga et al, 2022).

[2] = system: colitis, gastrointestinal and vaginal candidiasis; conditions: mouse, in vivo; cited from earlier work
[3] = system: graft-versus-host disease (GvHD); conditions: mouse, in vivo; cited from earlier work
DSS-induced colitis = conditions: cited from earlier work

With `O=Cc1c[nH]c2ccccc12` [3-IAld, 1H-indole-3-carbaldehyde] the “cytotoxic effects / pathology induced by CTLA-4 blockade (overall)” value ([1]; 3-IAld, chronic schedule) was “effective; also recorded: protects”, the “CD3+ T cell (lymphocytic) infiltration” value ([1]; ileum, colon, lung and liver, anti-CD3 staining) was “significantly reduced; also recorded: reduces lymphocytic infiltration” and the “recruitment of CD4+ and CD8+ tumour-infiltrating lymphocytes” value (B16 tumor cells; 3-IAld with anti-CTLA-4 mAb) was “did not affect”. The “development of antitumor immunity / tumor immunosurveillance (overall)” value (B16 tumor cells; B16 and LLC models) was “does not interfere”, the “barrier integrity and production of antimicrobial peptides” value [2] was “enhanced” and the gut epithelial damage [3] was “limited”. For the same compound, the inflammatory cytokine production [3] was “decreased”, the transepithelial bacterial translocation [3] was “reduced” and the IL-22 production (DSS-induced colitis; intragastric administration, AhR-dependent manner) was “induced IL-22 production”. For the same compound, the “therapeutic efficacy in a murine model of dextran-induced colitis” value (DSS-induced colitis; mouse, in vivo) was “therapeutic efficacy”.
